{"source": "patent US20220087969A1", "about": "“METHOD FOR TREATING ASTHMA” (Olatec Therapeutics LLC, priority 2019, published 2022)", "key": {"[1]": {"conditions": "humans, oral 1000 mg/day; Marchetti 2018b; cited from earlier work"}, "[2]": {"tested_on": "OVA-induced allergic airway inflammation", "test": "Goblet cells covering airway mucosa, OVA model, oral dapansutrile in food", "assay_type": "in vivo, mice", "experimental": "(§1) The experimental protocols of the mouse model were the same as those described in Example 1, except dapansutrile was administered orally by food. The already-sensitized mice were fed ad libidum with food pellets containing 7.5 g/kg dapansutrile starting on day 22 for one week; the first aerosol challenge was on day 26. Mice typically consume about 4 g of food per day, resulting in an approximate daily dose of 0 mg/kg/day for control groups and 1,000 mg/kg/day for the treatment groups. […] OVA-sensitized, OVA-challenged asthmatic controls (asthmatic) were fed with control food pellets without dapansutrile. […] (data not shown)."}, "[3]": {"tested_on": "OVA-induced allergic airway inflammation", "test": "Goblet cells covering airway mucosa (PAS sections, stereology), OVA model, i.p. dapansutrile", "assay_type": "in vivo, C57BL/6j mice", "conditions": "treated mice, 60 mg/kg i.p.; asthmatic 22.74%; p<0.01", "experimental": "(§2) C57BL/6j mice were sensitized to OVA (ovalbumin) by three intraperitoneal (i.p.) injections of 10 μg OVA adsorbed to 150 mg aluminum hydroxide on days 1, 14, and 21. This sensitization results in an adoptive immune response against OVA with OVA-specific TH2 cells and the production of OVA-specific antibodies of the subclasses IgE and […]. To induce acute allergic airway inflammation, mice were exposed three times to an OVA aerosol (1% w/v in PBS) on days 26, 27, and 28. Healthy control animals (healthy group) were sham sensitized to PBS and subsequently challenged with PBS aerosol. […] The following readouts were measured according to Lunding, 2015b. • General infiltration of inflammatory cells into the broncheoalveolar lumen • Determination of the specific infiltration of eosinophils, neutrophils and lymphocytes by histologic differentiation of the bronchoalveolar lavage (BAL) cells. • Goblet cell hyperplasia by CAST system (Computer Assisted Stereological Toolbox), including making microscopic pictures of the airways. • Airway resistance in response to methacholine to determine the airway hyperresponsiveness. Specifically, inflammatory cell subpopulations (eosinophils, macrophages, neutrophils, lymphocytes) infiltrating the bronchoalveolar lumen were quantified using cyto-spinned and quick-diff-stained cells from bronchoalveolar lavage fluids (BALF). […]"}, "[4]": {"tested_on": "OVA-induced allergic airway inflammation", "test": "Airway resistance in response to MCh, OVA model, oral dapansutrile in food", "assay_type": "in vivo, mice", "conditions": "100 mg/mL MCh", "experimental": "as §1, with “Baseline airway resistance of healthy animals was 2.58 cm H2O·s/mL at 100 mg/mL MCh.” for “(data not shown).”"}, "[5]": {"tested_on": "OVA-induced allergic airway inflammation", "test": "Inflammatory cell infiltrate in lung tissue (HE sections, CAST), OVA model, i.p. dapansutrile", "assay_type": "in vivo, C57BL/6j mice", "conditions": "60 mg/kg i.p.; treated vs asthmatic mice; p<0.01", "experimental": "as §2"}}}
{"smiles": "CS(=O)(=O)CCC#N", "note": "[dapansutrile, 3-methanesulfonylpropionitrile]", "values": [{"measurement": "blood level", "setting": "[1]", "value": 40000, "unit": "ng/mL"}, {"measurement": "change of goblet cells covering the airway mucosa", "setting": "[2]; oral, 7.5 g/kg in food, vs asthmatic mice", "value": "−29", "unit": "%"}, {"measurement": "goblet cells covering the airway mucosa", "setting": "[2]; treated mice, oral 7.5 g/kg in food, asthmatic 15.75%", "value": 11.16, "unit": "%"}, {"measurement": "area of epithelial basal membrane covered by goblet cells", "setting": "[3]", "value": 17.67, "unit": "%"}, {"measurement": "reduction of airway resistance in response to MCh", "setting": "[4]; oral, 7.5 g/kg in food, vs sham-treated asthmatic controls, p<0.01", "value": "approximately 60%"}, {"measurement": "airway resistance in response to MCh", "setting": "[4]; treated mice, oral 7.5 g/kg in food, asthmatic 4.57, healthy 2.58", "value": 3.38, "unit": "cm H2O·s/mL"}, {"measurement": "number of inflammatory cells in lung tissue (volume of inflammatory cell infiltrate per basal membrane area)", "setting": "[5]", "value": "significantly lower"}]}
